In patent publication US9676782B2, “Substituted pyrazolo[1,5-a]pyrazines as negative allosteric modulators of metabotropic glutamate receptor 3” (Vanderbilt University, priority 2014, dated 2017):
pEC50, pIC50: −log10 of the molar value. Where two headings read alike, the source gives them in different places.

How the values were obtained:
rat mGlu5 = rat mGlu5 (Rattus norvegicus (Rat), UniProt P31424); assay: mGlu5 Ca2+ flux assay; type: cell-based; details: for Emax at 30 µM: PAM, amplitude of response at 30 μM test compound as % of maximal response to glutamate, read-out: rat mGlu5 Glu max (%); for Fold selectivity (mGlu3 vs. mGlu5): ratio of rat mGlu5 EC50 or IC50 to rat mGlu3 IC50; for pEC50: read-out: rat mGlu5 EC50 or IC50
Description: (§1) The cells were grown overnight at 37° C. in the presence of 5% CO2. […] Dye was removed, 20 μL of assay buffer was added, and the plate was incubated for 5 minutes at room temperature. Ca^2+ flux was measured using the Functional Drug Screening System (FDSS7000, Hamamatsu, Japan). […] All test compounds were dissolved and diluted to a concentration of 10 mM in 100% DMSO. […] Calcium fluorescence measures were recorded as fold over basal fluorescence; raw data was then normalized to the maximal response to glutamate. […] The raw data file containing all time points was used as the data source in the analysis template. This was saved by the FDSS as a tab-delimited text file. Data were normalized using a static ratio function (F/F0) for each measurement of the total 360 values per well divided by each well's initial value. […] This is sufficient time to capture the peak amplitude of the cellular calcium response. […] EC50 values for test compounds were generated by fitting the normalized values versus the log of the test compound concentration (in mol/L) using a 4 parameter logistic equation where none of the parameters were fixed. Each of the three values collected at each concentration of test compound were weighted evenly.

rat mGlu3 = rat mGlu3 (Rattus norvegicus (Rat), UniProt P31422); assay: mGlu3 Ca2+ flux assay; type: cell-based; details: for pIC50: read-out: rat mGlu3 IC50; for remaining activity at 30 µM: amplitude of response at 30 μM test compound as % of maximal response to glutamate, read-out: rat mGlu3 Glu max (%)
Description: as §1, with “for 10” for “for 5”

[1] = NAM potency, decrease of glutamate EC80 response, >30,000 = no measurable activity, >10,000 = no plateau

Sequence of rat mGlu3 (P31422 23-879): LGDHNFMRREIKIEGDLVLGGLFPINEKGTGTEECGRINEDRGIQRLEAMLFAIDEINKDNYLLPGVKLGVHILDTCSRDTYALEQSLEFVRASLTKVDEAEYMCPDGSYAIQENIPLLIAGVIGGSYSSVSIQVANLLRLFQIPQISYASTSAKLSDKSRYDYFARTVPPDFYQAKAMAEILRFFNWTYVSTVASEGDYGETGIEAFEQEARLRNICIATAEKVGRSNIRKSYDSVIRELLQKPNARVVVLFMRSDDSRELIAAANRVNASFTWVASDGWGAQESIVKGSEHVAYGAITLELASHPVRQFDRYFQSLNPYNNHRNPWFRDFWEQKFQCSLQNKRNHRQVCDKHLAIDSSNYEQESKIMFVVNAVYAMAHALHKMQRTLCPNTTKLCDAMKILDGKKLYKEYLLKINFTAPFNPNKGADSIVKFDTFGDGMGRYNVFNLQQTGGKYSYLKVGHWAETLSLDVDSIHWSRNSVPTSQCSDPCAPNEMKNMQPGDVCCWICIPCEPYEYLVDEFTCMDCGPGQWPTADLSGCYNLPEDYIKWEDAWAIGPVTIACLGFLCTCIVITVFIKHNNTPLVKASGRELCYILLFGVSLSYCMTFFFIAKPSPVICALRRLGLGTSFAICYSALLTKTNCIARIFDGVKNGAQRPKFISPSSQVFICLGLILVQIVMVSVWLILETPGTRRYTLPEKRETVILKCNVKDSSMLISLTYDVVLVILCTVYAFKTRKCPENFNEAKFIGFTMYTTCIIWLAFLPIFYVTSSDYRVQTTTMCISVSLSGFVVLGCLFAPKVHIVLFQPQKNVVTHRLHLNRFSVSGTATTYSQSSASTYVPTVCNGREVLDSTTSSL
Sequence of rat mGlu5 (P31424 21-1203): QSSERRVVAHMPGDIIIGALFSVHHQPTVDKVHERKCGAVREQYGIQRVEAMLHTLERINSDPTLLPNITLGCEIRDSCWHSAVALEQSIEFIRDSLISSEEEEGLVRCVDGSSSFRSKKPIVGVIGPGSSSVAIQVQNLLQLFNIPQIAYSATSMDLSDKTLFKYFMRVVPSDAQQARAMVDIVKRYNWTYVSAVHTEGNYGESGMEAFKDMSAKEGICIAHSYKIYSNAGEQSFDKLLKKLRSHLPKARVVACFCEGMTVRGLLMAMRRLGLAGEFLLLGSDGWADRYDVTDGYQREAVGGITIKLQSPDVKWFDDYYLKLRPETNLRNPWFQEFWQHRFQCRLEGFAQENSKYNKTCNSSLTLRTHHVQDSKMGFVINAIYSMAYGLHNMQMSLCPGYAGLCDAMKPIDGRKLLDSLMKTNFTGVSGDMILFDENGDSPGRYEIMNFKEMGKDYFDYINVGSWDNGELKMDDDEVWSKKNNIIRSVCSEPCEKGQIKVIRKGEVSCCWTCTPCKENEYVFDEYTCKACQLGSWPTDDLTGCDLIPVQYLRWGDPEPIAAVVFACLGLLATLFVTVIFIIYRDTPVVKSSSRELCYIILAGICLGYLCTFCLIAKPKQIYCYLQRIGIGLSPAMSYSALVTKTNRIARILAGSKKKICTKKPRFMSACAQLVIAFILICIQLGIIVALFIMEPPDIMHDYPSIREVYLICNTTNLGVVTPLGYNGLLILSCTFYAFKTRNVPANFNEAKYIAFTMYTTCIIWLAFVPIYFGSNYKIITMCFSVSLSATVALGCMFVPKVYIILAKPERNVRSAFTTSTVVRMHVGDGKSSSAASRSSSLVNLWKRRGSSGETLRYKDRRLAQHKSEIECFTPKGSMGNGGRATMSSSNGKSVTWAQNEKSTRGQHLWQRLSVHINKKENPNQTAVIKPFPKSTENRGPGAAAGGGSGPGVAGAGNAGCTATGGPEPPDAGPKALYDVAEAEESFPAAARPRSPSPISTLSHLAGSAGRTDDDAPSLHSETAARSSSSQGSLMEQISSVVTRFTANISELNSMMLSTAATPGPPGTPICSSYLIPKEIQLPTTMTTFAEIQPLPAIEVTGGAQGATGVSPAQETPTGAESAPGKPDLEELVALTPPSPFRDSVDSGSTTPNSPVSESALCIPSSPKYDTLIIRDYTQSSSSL

Question: Cc1ccccc1NCc1cc2n(n1)[C@@H](C)CN(c1ccc(F)cc1)C2=O [Compound 45, (S)-5-(4-fluorophenyl)-7-methyl-2-((o-tolylamino)methyl)-6,7-dihydropyrazolo[1,5-a]pyrazin-4(5H)-one] was tested. Which Emax at 30 µM (rat mGlu5) did it give?
Answer: 37.1%

Question: What about the “Fold selectivity (mGlu3 vs. mGlu5)” value (rat mGlu5) of the same compound?
Answer: >2.9

Question: What about the pEC50 (rat mGlu5) of the same compound?
Answer: < 5.00

Question: And the pIC50 (rat mGlu3; [1])?
Answer: 5.48

Question: And the remaining activity at 30 µM (rat mGlu3)?
Answer: 1.32%

Question: Which Emax at 30 µM (rat mGlu5) does the source give for C[C@@H]1CN(c2ccc(F)cc2)C(=O)c2cc(CNc3cccc(F)c3)nn21 [Compound 46, (R)-5-(4-fluorophenyl)-2-(((3-fluorophenyl)amino)methyl)-7-methyl-6,7-dihydropyrazolo[1,5-a]pyrazin-4(5H)-one] here?
Answer: 24.6%

Question: What about the “Fold selectivity (mGlu3 vs. mGlu5)” value (rat mGlu5) of the same compound?
Answer: >8.2

Question: And the pEC50 (rat mGlu5)?
Answer: < 5.00

Question: And the remaining activity at 30 µM (rat mGlu3)?
Answer: 0.58%

Question: And the pIC50 (rat mGlu3)?
Answer: 5.92

Question: C[C@H]1CN(c2ccc(F)cc2)C(=O)c2cc(CNc3cccc(F)c3)nn21 [Compound 47, (S)-5-(4-fluorophenyl)-2-(((3-fluorophenyl)amino)methyl)-7-methyl-6,7-dihydropyrazolo[1,5-a]pyrazin-4(5H)-one] was tested. Which Emax at 30 µM (rat mGlu5) did it give?
Answer: 78.3%

Question: And the “Fold selectivity (mGlu3 vs. mGlu5)” value (rat mGlu5)?
Answer: 0.58

Question: And the pEC50 (rat mGlu5)?
Answer: 5.97

Question: And the remaining activity at 30 µM (rat mGlu3)?
Answer: 1.77%

Question: And the pIC50 (rat mGlu3)?
Answer: 5.74

Question: Which Emax at 30 µM (rat mGlu5) does the source give for C[C@@H]1CN(c2ccc(F)cc2)C(=O)c2cc(CNc3cccc(Cl)c3)nn21 [Compound 48, (R)-2-(((3-chlorophenyl)amino)methyl)-5-(4-fluorophenyl)-7-methyl-6,7-dihydropyrazolo[1,5-a]pyrazin-4(5H)-one] here?
Answer: 88.8%

Question: And the “Fold selectivity (mGlu3 vs. mGlu5)” value (rat mGlu5)?
Answer: >6.0

Question: And the pEC50 (rat mGlu5)?
Answer: < 5.00

Question: What about the remaining activity at 30 µM (rat mGlu3) of the same compound?
Answer: 1.63%

Question: And the pIC50 (rat mGlu3)?
Answer: 5.78

Question: With C[C@H]1CN(c2ccc(F)cc2)C(=O)c2cc(CNc3cccc(Cl)c3)nn21 [Compound 49, (S)-2-(((3-chlorophenyl)amino)methyl)-5-(4-fluorophenyl)-7-methyl-6,7-dihydropyrazolo[1,5-a]pyrazin-4(5H)-one] as the compound, how does the Emax at 30 µM (rat mGlu5) read?
Answer: 76.5%

Question: And the “Fold selectivity (mGlu3 vs. mGlu5)” value (rat mGlu5)?
Answer: 4.45

Question: And the pEC50 (rat mGlu5)?
Answer: 5.23

Question: And the remaining activity at 30 µM (rat mGlu3)?
Answer: -0.54%

Question: And the pIC50 (rat mGlu3)?
Answer: 5.88

Question: Which results are given for Cc1cccc(NCc2cc3n(n2)[C@H](C)CN(c2ccc(F)cc2)C3=O)c1 [Compound 50, (R)-5-(4-fluorophenyl)-7-methyl-2-((m-tolylamino)methyl)-6,7-dihydropyrazolo[1,5-a]pyrazin-4(5H)-one]?
Answer: Fold selectivity (mGlu3 vs. mGlu5) (rat mGlu5): >9.8; pEC50 (rat mGlu5): < 4.52; pIC50 (rat mGlu3; [1]): 5.52; remaining activity at 30 µM (rat mGlu3): 0.09%

Question: How did the Emax at 30 µM (rat mGlu5) turn out when Cc1cccc(NCc2cc3n(n2)[C@@H](C)CN(c2ccc(F)cc2)C3=O)c1 [Compound 51, (S)-5-(4-fluorophenyl)-7-methyl-2-((m-tolylamino)methyl)-6,7-dihydropyrazolo[1,5-a]pyrazin-4(5H)-one] was run?
Answer: 86.2%

Question: And the “Fold selectivity (mGlu3 vs. mGlu5)” value (rat mGlu5)?
Answer: 2.53

Question: And the pEC50 (rat mGlu5)?
Answer: 5.12

Question: What about the pIC50 (rat mGlu3; [1]) of the same compound?
Answer: 5.52

Question: What about the remaining activity at 30 µM (rat mGlu3) of the same compound?
Answer: 3.21%

Question: What does the source list for COc1cccc(NCc2cc3n(n2)[C@H](C)CN(c2ccc(F)cc2)C3=O)c1 [Compound 52, (R)-5-(4-fluorophenyl)-2-(((3-methoxyphenyl)amino)methyl)-7-methyl-6,7-dihydropyrazolo[1,5-a]pyrazin-4(5H)-one]?
Answer: Fold selectivity (mGlu3 vs. mGlu5) (rat mGlu5): >11; pEC50 (rat mGlu5): < 4.52; pIC50 (rat mGlu3; [1]): 5.57; remaining activity at 30 µM (rat mGlu3): 4.06%

Question: Which “Fold selectivity (mGlu3 vs. mGlu5)” value (rat mGlu5) does the source give for COc1cccc(NCc2cc3n(n2)[C@@H](C)CN(c2ccc(F)cc2)C3=O)c1 [Compound 53, (S)-5-(4-fluorophenyl)-2-(((3-methoxyphenyl)amino)methyl)-7-methyl-6,7-dihydropyrazolo[1,5-a]pyrazin-4(5H)-one] here?
Answer: >3.0

Question: What about the pEC50 (rat mGlu5) of the same compound?
Answer: < 4.52

Question: And the pIC50 (rat mGlu3; [1])?
Answer: 5.00

Question: And the remaining activity at 30 µM (rat mGlu3)?
Answer: 8.62%
